From PubChem BioAssay AID588735 (Vanderbilt Specialized Chemistry Center, 2011)

Target: Metabotropic glutamate receptor 5 (Rattus norvegicus) (UniProt P31424)
Experiment: PubChem AID 588735
Settings: HEK293 rat mGluR5, calcium fluorescence, at 10 µM, stronger effect = higher value

Chain of Metabotropic glutamate receptor 5 (Rattus norvegicus) (P31424 whole entry, looked up): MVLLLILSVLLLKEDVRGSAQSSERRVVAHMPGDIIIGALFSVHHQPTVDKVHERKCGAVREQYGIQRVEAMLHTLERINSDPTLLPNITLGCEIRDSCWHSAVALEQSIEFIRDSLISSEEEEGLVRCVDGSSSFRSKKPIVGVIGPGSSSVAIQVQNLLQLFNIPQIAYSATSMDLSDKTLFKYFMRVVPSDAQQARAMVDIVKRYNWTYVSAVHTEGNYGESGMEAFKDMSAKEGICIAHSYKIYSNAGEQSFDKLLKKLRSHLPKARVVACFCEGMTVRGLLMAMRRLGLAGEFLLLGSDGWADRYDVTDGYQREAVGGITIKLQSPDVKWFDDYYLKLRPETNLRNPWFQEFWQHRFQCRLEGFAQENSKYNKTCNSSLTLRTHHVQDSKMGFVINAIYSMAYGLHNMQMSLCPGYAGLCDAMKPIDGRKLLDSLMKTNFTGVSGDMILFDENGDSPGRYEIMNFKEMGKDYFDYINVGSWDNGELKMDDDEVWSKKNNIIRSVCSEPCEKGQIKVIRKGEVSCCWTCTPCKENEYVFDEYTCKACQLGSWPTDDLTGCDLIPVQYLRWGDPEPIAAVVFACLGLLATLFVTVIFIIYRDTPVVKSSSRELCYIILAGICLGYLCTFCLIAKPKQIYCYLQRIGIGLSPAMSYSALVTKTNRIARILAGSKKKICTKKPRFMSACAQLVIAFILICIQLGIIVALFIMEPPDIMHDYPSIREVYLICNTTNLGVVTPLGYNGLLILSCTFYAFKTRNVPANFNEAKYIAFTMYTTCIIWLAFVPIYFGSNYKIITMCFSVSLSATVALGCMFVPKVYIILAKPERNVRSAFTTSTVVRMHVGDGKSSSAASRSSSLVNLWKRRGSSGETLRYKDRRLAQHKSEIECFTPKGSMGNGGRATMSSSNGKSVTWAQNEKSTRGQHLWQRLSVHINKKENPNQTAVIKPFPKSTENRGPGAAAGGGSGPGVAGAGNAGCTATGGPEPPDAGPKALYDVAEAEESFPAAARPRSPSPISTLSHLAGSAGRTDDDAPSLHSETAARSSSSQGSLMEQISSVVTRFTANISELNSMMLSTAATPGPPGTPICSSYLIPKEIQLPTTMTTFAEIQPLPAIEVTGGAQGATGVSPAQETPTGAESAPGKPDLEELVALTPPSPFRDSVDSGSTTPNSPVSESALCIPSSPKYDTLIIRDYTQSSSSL

fold shift: 4.6
Emax (glutamate fold shift, glutamate max response with compound): 62%
Emin (glutamate fold shift, glutamate min response (ago-PAM)): 45%
Compound: C[C@@H](NC(=O)c1ccc(C#Cc2cccc(F)c2)cn1)C(C)(C)O
